Measured values as given in PMC4583449, “Characterisation of (R)-2-(2-Fluorobiphenyl-4-yl)-N-(3-Methylpyridin-2-yl)Propanamide as a Dual Fatty Acid Amide Hydrolase: Cyclooxygenase Inhibitor” (PLoS ONE, 2015).
Where two headings read alike, the source gives them in different places.

Assays:
rat brain FAAH = molecular target: T1, rat brain FAAH (Rattus norvegicus, UniProt P97612); assay: [3H]AEA hydrolysis in rat brain homogenates; type: biochemical; details: current authors, unpublished data; read-out: IC50 inhibition of [3H]AEA hydrolysis in rat brain homogenates
T1 construct: the racemate was studied in rat brain homogenates, whereas mouse brain homogenates were used here; from tissue; host or cells: rat brain homogenates
T1 sequence (P97612 1-579): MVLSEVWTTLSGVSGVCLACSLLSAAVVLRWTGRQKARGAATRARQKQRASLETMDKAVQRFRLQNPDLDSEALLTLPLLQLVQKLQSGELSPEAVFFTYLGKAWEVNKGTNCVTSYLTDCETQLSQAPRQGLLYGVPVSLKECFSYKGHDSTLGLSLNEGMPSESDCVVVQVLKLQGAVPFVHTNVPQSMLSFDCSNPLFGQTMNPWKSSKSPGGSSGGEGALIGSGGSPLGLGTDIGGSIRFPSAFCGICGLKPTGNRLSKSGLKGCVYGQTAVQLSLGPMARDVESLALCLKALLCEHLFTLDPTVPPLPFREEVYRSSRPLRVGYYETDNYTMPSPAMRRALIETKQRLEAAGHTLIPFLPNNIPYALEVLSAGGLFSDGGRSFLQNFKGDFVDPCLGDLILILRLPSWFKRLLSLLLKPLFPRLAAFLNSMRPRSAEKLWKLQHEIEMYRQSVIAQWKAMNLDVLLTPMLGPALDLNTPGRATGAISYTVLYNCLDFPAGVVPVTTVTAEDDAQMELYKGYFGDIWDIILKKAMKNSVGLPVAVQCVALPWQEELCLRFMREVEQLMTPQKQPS

mouse brain FAAH = molecular target: T2, mouse brain FAAH (Mus musculus, UniProt O08914); assay: FAAH assay, [3H]AEA hydrolysis in mouse brain homogenates; type: biochemical
T2 construct: Brains from male B6CBAF1/J mice, stored at -80°C, were thawed, weighed and homogenized in cold buffer; from tissue; host or cells: brain of male B6CBAF1/J mice (washed membrane pellet homogenate)
T2 sequence (O08914 1-579): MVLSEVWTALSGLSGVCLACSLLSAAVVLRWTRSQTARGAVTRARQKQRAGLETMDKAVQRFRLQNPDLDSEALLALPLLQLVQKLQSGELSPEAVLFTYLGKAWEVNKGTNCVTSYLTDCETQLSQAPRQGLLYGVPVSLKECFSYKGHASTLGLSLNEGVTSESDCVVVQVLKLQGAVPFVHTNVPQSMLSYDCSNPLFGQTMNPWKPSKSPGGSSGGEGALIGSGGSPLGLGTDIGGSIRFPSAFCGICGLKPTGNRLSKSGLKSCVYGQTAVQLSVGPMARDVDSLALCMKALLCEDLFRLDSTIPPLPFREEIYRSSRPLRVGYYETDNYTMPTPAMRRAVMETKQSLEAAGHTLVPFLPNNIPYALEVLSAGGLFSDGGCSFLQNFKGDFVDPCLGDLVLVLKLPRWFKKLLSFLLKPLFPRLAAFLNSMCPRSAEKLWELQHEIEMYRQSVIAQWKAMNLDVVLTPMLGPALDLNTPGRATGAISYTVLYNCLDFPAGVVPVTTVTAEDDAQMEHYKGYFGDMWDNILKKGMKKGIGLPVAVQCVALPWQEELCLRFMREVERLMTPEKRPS
Procedure: Brains from male B6CBAF1/J mice, stored at -80°C, were thawed, weighed and homogenized in cold buffer (20 mM HEPES, 1 mM MgCl2 pH 7.0). Homogenates were centrifuged (35,000 g at 4°C for 20 min) before the pellet was resuspended in cold homogenization buffer. Centrifugation and resuspension was repeated twice. The suspension was incubated at 37°C for 15 min to degrade any endogenous substrate able to interfere with the FAAH assay. After centrifugation (35,000 g at 4°C for 20 min), the pellet was resuspended in cold buffer (50 mM Tris-HCl, 1mM EDTA, 3 mM MgCl2, pH 7.4). The protein concentration was determined according to the Bradford assay after which the samples were frozen in aliquots at -80°C. Ethical permission for the animal experiments was obtained from the local animal research ethical committee (Umeå Ethical Committee for Animal Research, Umeå, Sweden). FAAH was assayed using the method of Boldrup et al., whereby homogenates (0.3 μg protein / assay) in assay buffer (10 mM Tris-HCl, 1mM EDTA, pH 7.4), test compounds and substrate ([^3H]AEA in 10 mM Tris-HCl, 1mM EDTA, pH 7.4 containing 10 mg/ml fatty acid-free bovine serum, assay concentration 0.5 μM unless otherwise stated) were incubated for 10 min at 37°C. Thereafter, 400 μL activated charcoal (80 μL activated charcoal + 320 μL 0.5 M HCl) was added and the samples were placed on ice and centrifuged at 2500 rpm for 10 min. Aliquots (200 μL) of the supernatant was analyzed for tritium content by liquid scintillation spectroscopy with quench correction.

Cc1cccnc1NC(=O)[C@H](C)c1ccc(-c2ccccc2)c(F)c1 [(R)-Flu-AM1, (R)-2-(2-Fluorobiphenyl-4-yl)-N-(3-Methylpyridin-2-yl)Propanamide]
IC50 (rat brain FAAH): 0.74 µM | IC50 (mouse brain FAAH; 0.5 μM [3H]AEA, read-out: IC50 inhibition of [3H]AEA hydrolysis in mouse brain homogenates): 8.8 µM | Ki (mouse brain FAAH; Dixon replot of mean kinetic data, 1–8 μM [3H]AEA, read-out: Ki FAAH (Dixon plot)): 19 µM | Mode of FAAH inhibition (mouse brain FAAH; kinetic experiments, 1–8 μM [3H]AEA): competitive inhibitor | Ki (mouse brain FAAH; kinetic experiments, 1–8 μM [3H]AEA, read-out: Ki FAAH (competitive model fit)): 20 ± 8 µM
